According to paper PMC9653804, “Multifunctional Derivatives of Spiropyrrolidine Tethered Indeno-Quinoxaline Heterocyclic Hybrids as Potent Antimicrobial, Antioxidant and Antidiabetic Agents: Design, Synthesis, In Vitro and In Silico Approaches” (Molecules, 2022):
Converted amounts (≈) assume the structure as drawn.

Columns and labels:
[1] = tested on: Pseudomonas aeruginosa ATCC 27853; test: Antimicrobial activity (MIC, MBC) against P. aeruginosa; assay type: cell-based; settings: P. aeruginosa ATCC 27853, '-' = No activity
[2] = tested on: Candida albicans ATCC 90028; test: Antifungal activity (MIC, MFC) against C. albicans; assay type: cell-based; settings: C. albicans ATCC 90028, '-' = No activity; for MFC/MIC: fungicidal ≤ 4, fungistatic > 4; for MFC / MIC: Candida albicans, ATCC90028
[3] = Radical scavenging activity ABTS; settings: ABTS radical scavenging
Protocol: The ABTS assay was performed as previously described by Tuberoso et al.. ABTS^+ radical was generated by oxidation of ABTS with potassium persulfate. The blue–green ABTS was produced through the reaction between 2 mM ABTS and […] potassium persulfate in water. The mixture was left to stand in the dark for 12 to 16 h before use. The ABTS solution was diluted with methanol to an absorbance of 0.700 ± 0.005 at 734 nm. Then 2 mL of diluted ABTS solution was mixed with 100 μL of samples and absorbance was measured after 1 min incubation at room temperature. A standard curve was obtained by using Trolox as standard solution. The results were expressed as μM Trolox equivalent.
The mixture of 7 mmol/L aqueous ABTS solution with 2.45 mmol/L potassium persulfate solution constitutes a stable ABTS^+ stock solution that was allowed to stand in the dark and at room temperature for 12 to 16 h before use. A 1 mL sample of the diluted ABTS solution (adjusted to 0.7 ± 0.02 at […]) was added to 10 μL of each product. The absorbance was determined after 6 min. The percentage inhibition of the ABTS˙ radical was calculated from the following equation:% inhibition = (Abscontrol − Abstest)/Abscontrol × 100
Abs control: the control absorbance.
Abs test: the absorbance of the test sample after 6 min.

[4] = Ferric reducing power assay (FRAP)
[5] = tested on: Staphylococcus aureus ATCC 25923; test: Antimicrobial activity (MIC, MBC) against S. aureus; assay type: cell-based; settings: S. aureus ATCC 25923; for MBC/MIC: bactericidal ≤ 4, bacteriostatic > 4; for MIC: Staphylococcus aureus, ATCC25923, '-' = No activity
[6] = tested on: Escherichia coli ATCC 25922; test: Antimicrobial activity (MIC, MBC) against E. coli; assay type: cell-based; settings: E. coli ATCC 25922; '-' = No activity
[7] = DPPH free radical scavenging activity; settings: DPPH radical scavenging
Protocol: DPPH, the stable artificial free radicals, has been widely used for the measurement of free radical scavenging capacity of the compounds in ethanol and aqueous systems. Briefly, 2 mL DPPH solution (0.2 mM, in 95% ethanol) was incubated with 2 mL different concentrations of compounds solution. Then, the reaction mixture was shaken and incubated in the dark for 40 min at room temperature. The absorbance was immediately recorded at 517 nm against ethanol with a spectrophotometer (Metash, model UV-5200, Shanghai Xiwen Biotech. Co., Ltd, Shanghai, China). The DPPH free radical scavenging rate was calculated using the equation:DPPH scavenging activity (%) = A0 − A1/A0 × 100 where A0 was the absorbance of the control reaction (containing all reagents except the tested compound), and A1 was the absorbance of the test reaction (containing all reagents with the tested compound). The percentage of DPPH radical scavenging activity was plotted against the sample concentration to acquire the IC50 value, defined as the concentration of sample necessary to cause 50% inhibition. Radical scavenging activity (RSA) was calculated from the IC50 value as the equation: RSA = pIC50 = −lg[IC50]. The smaller the IC50 value, the larger is the RSA value and the higher is the antioxidant activity.

Candida krusei ATCC 6258 = test: Antifungal activity (MIC, MFC) against C. krusei; assay type: cell-based; settings: C. krusei ATCC 6258, '-' = No activity; for MFC / MIC: Pichia kudriavzevii, ATCC6258
[8] = tested on: Micrococccus luteus NCIMB 8166; test: Antimicrobial activity (MIC, MBC) against M. luteus; assay type: cell-based; settings: M. luteus NCIMB 8166, '-' = No activity; for MIC: Micrococcus luteus, NCIMB8166

SMILES	MBC/MIC [1]	MFC/MIC [2]	IC50 [3] [µM]	melting point [°C]	IC50 [4] [µM]	MBC/MIC [5]	MIC [5] [mM]	MBC/MIC [6]	IC50 [7] [µM]	MFC/MIC (Candida krusei ATCC 6258)	MFC (Candida krusei ATCC 6258) [mM]	MIC (Candida krusei ATCC 6258) [mM]	MFC [2] [mM]	MIC [2] [mM]	MIC ([1]; Pseudomonas aeruginosa, ATCC27853) [mM]	MIC [8] [mM]	MBC/MIC [8]
COc1ccc(C2CN(C)C3(c4ccccc4-c4nc5ccccc5nc43)C23CC(=O)N(C)C3=O)cc1Br (stereo not shown) [5k, Spiro [2,11″]indeno-[1,2b]-quinoxaline-spiro-[3,3′]-N-methylsuccinimide-4-(3-bromo-4-methoxyphenyl)hexahydro-1H-pyrrolidines]	2	1	7.69 ± 0.36	209 to 211	6.03 ± 0.12	8	54.7 (≈ 31.1 mg/mL)	2	123.4 ± 0.45	1	54.7 (≈ 31.1 mg/mL)	54.7 (≈ 31.1 mg/mL)	–	–	–	–	–
COc1ccccc1C1CN(C)C2(c3ccccc3-c3nc4ccccc4nc32)C12CC(=O)N(C)C2=O (stereo not shown) [5c, Spiro [2,11″]indeno-[1,2b]-quinoxaline-spiro-[3,3′]-N-methylsuccinimide-4-(2 methoxyphenyl)hexahydro-1H-pyrrolidines]	2	1	7.03 ± 0.07	196 to 198	3.69 ± 0.72	16	31.7 (≈ 15.6 mg/mL)	–	3.26 ± 0.32	1	63.4 (≈ 31.1 mg/mL)	63.4 (≈ 31.1 mg/mL)	63.4 (≈ 31.1 mg/mL)	63.4 (≈ 31.1 mg/mL)	–	–	–
CN1C(=O)CC2(C1=O)C(c1ccccc1)CN(C)C21c2ccccc2-c2nc3ccccc3nc21 (stereo not shown) [5a, Spiro [2,11″]indeno-[1,2b]-quinoxaline-spiro-[3,3′]-N-methylsuccinimide-4-(phenyl)hexahydro-1H-pyrrolidines]	4	1	49.19 ± 0.46	173 to 175	17 ± 0.52	2	–	2	15.4 ± 0.65	1	67.6 (≈ 31.1 mg/mL)	67.6 (≈ 31.1 mg/mL)	–	–	–	–	–
CN1C(=O)CC2(C1=O)C(c1cc(Br)c(O)c(Br)c1)CN(C)C21c2ccccc2-c2nc3ccccc3nc21 (stereo not shown) [5m, Spiro [2,11″]indeno-[1,2b]-quinoxaline-spiro-[3,3′]-N-methylsuccinimide-4-(3,5-dibromo-4-hydroxyphenyl)hexahydro-1H-pyrrolidines]	4	1	14.6 ± 0.26	214 to 216	7.38 ± 0.14	8	24.5 (≈ 15.6 mg/mL)	1	47.29 ± 0.06	1	49.1 (≈ 31.1 mg/mL)	49.1 (≈ 31.1 mg/mL)	98.2 (≈ 62.3 mg/mL)	98.2 (≈ 62.3 mg/mL)	98.2 (≈ 62.3 mg/mL)	98.2 (≈ 62.3 mg/mL)	–
Cc1ccc(C2CN(C)C3(c4ccccc4-c4nc5ccccc5nc43)C23CC(=O)N(C)C3=O)cc1 (stereo not shown) [5b, Spiro [2,11″]indeno-[1,2b]-quinoxaline-spiro-[3,3′]-N-methylsuccinimide-4-(4-methylphenyl)hexahydro-1H-pyrrolidines]	4	2	57.51 ± 0.55	183 to 185	63.26 ± 0.21	8	65.6 (≈ 31.1 mg/mL)	2	33.74 ± 0.004	1	65.6 (≈ 31.1 mg/mL)	65.6 (≈ 31.1 mg/mL)	–	–	–	–	–
COc1ccc(C2CN(C)C3(c4ccccc4-c4nc5ccccc5nc43)C23CC(=O)N(C)C3=O)cc1 (stereo not shown) [5d, Spiro [2,11″]indeno-[1,2b]-quinoxaline-spiro-[3,3′]-N-methylsuccinimide-4-(4-methoxyphenyl)hexahydro-1H-pyrrolidines]	4	4	9.78 ± 0.3	179 to 181	8.09 ± 0.82	32	3.95 (≈ 1.94 mg/mL)	4	7.44 ± 0.15	1	15.8 (≈ 7.78 mg/mL)	15.8 (≈ 7.78 mg/mL)	–	31.7 (≈ 15.6 mg/mL)	–	63.4 (≈ 31.1 mg/mL)	4
